The subject of test [1] is cocaine self-administration in rats. The test can be described thus: Cocaine self-administration in rats, metyrapol (Example 5). In kind it is in vivo, Adult male Wistar rats. To be noted: metyrapol 25, 50, 100, 150 mg/kg ip 30 minutes before session; cocaine 0.125, 0.25 and 0.5 mg/kg/infusion. As for the experimental part:
(§1) We conducted the following experiment to explore the possibility that metyrapol would decrease cocaine self-administration in an animal model. Adult male Wistar rats were trained to respond under a 2-hour multiple, alternating schedule of food reinforcement and cocaine self-administration (fixed-ratio 4) during alternating 15-minute periods. Prior to testing, the rats were exposed to multiple saline substitution and food extinction probes. On test days, rats were pretreated 30 minutes prior to the start of the behavioral session with metyrapol (25, 50, 100, and 150 mg/kg, ip.) or vehicle. Subjects were initially trained and tested with 0.25 mg/kg/infusion of cocaine and, subsequently, with 0.125 and 0.5 mg/kg/infusion.

Test [2] concerns food-maintained responding in rats. Briefly: Food-maintained responding in rats, metyrapol (Example 5). In kind it is in vivo, Adult male Wistar rats. To be noted: metyrapol 25, 50, 100, 150 mg/kg ip. As for the experimental part: as §1
The test system of test [3] is cocaine self-administration in rats. The test can be described thus: Ongoing cocaine self-administration in rats (earlier experiments). In kind it is in vivo, rat. The settings on record: pretreatment with the single drug. An excerpt: We then reduced the dose by one-half until we found a dose of each drug that no longer affected cocaine self-administration or any other observable behaviors (i.e., an ineffective dose). When we then combined the ineffective doses of the two drugs, cocaine self-administration was reduced. […] Thus, we concluded that combining drugs that affect the HPA axis through different mechanisms can produce an additive effect on cocaine reward. Furthermore, by combining these drugs at concentrations that have no effect when the drugs are administered alone, we can minimize the potential toxic side effects (e.g., excessive decreases in plasma cortisol with metyrapone and the abuse liability of benzodiazepines) that may be associated with these compounds. Accordingly, the compositions of the present invention may include combinations of therapeutic agents, one or both of which are present at a dosage level lower than that which would be required to achieve an effect had the agent been administered alone; the dosages may be additive.

The test system of another test is plasma corticosterone. Briefly: Plasma corticosterone in rats (earlier experiments). To be noted: pretreatment with metyrapone. In kind it is in vivo, rat.
Test [4] has as its system cocaine self-administration in rats. Briefly: Cocaine self-administration before and after adrenalectomy, alternating schedule of cocaine and food reinforcement (Example 1). In kind it is in vivo, Male Wistar rats. The settings on record: rats after bilateral adrenalectomy. As for the experimental part:
Male Wistar rats were housed in an AALAC-approved animal care facility and maintained at 85-90% of their free-feeding body weights. These rats were on a reversed 12-hour light, 12-hour dark cycle from the beginning of the experimental procedures.
A chronic indwelling jugular catheter (0.012 in i.d.×0.025 in o.d., silicone tubing) was implanted in each rat under pentobarbital anesthesia (50 mg/kg ip) with methyl atropine nitrate pretreatment (10 mg/kg ip). The animals were injected with sterile penicillin G procaine suspension (75,000 units, im) immediately before surgery and allowed 5-7 days to recover.
Animals were anesthetized with pentobarbital (50 mg/kg ip) with methyl atropine nitrate pretreatment (10 mg/kg ip). The adrenal glands were located through an incision and removed. The animals were injected with sterile penicillin G procaine suspension (75,000 units, im) and allowed to recover from surgery for 7 days. After ADX, the rats received drinking water containing 0.9% saline and 1.0% sucrose. Animals in the SHAM group received the same surgery except that the adrenal glands were not removed. They continued to receive tap water to drink.
Sound-attenuating operant conditioning chambers (Med-Associates, Inc.) were equipped with two response levers and a stimulus light located directly above each lever. A food pellet dispenser was located between the levers. […]

In another test the test system is plasma CORT. The test can be described thus: Plasma CORT radioimmunoassay (Example 1). Type of test: in vivo, Male Wistar rats. The settings on record: rats before adrenalectomy; any of the doses. An excerpt:
(§2) Blood was collected via the implanted catheters at the end of the behavioral test sessions for the measurement of plasma CORT and […] (ACTH). The samples were kept on ice until centrifuged in a refrigerated centrifuge and the plasma collected and frozen until assayed. Plasma CORT and ACTH (ng/ml) were subsequently determined by radioimmunoassay.

The subject of a further test is ACTH. The test can be described thus: Plasma ACTH radioimmunoassay (Example 1). Type of test: in vivo, Male Wistar rats. The settings on record: rats before adrenalectomy; any of the doses.
From the text: as §2

Test [5] concerns nicotine self-administration in rats. Briefly: Intravenous nicotine self-administration, fixed-ratio schedule (Example 3). Type of test: in vivo, Wistar-derived male rats. To be noted: FR1-TO-20 s; varenicline 1 mg/kg subcutaneously; reduced from 15.4±1.0.
Procedure: Wistar-derived male rats (250-300 g) were purchased from Harlan Laboratories (Livermore, Calif.), housed in groups of two, and maintained in a temperature-controlled environment on a 12 h:12 h light cycle. Before testing, animals were provided free access to food and water during a one-week habituation period, and were handled daily for several days to desensitize them to handling stress. Each rat included in the data analysis received all treatments in order to obtain reliable estimates of drug effects and decrease the impact of inter-animal variability.
Varenicline-HCl (Ontario Chemicals), at 1 mg/kg (expressed as free base), was used as a positive control and administered subcutaneously. Nicotine hydrogen tartrate (Sigma Aldrich) was dissolved in isotonic saline at 0.3 mg/mL (expressed as free base), adjusted to pH 7.0, and diluted to deliver 0.03 mg/kg/infusion. All test compounds were administered 30 minutes prior to nicotine self-administration sessions in a volume of 1 mL/kg.
Food training and nicotine self-administration took place in 8 standard COULBOURN® operant conditioning chambers. Each chamber was housed in a sound-attenuating chamber. Operant chambers were equipped with two levers mounted 2 cm above the floor and a cue light mounted 2 cm above the right lever (active lever) on the back wall of the chamber. […]
The test system of a further test is smoking cessation. The settings on record: cited from earlier work.

On to `CC(C)(c1cccnc1)C(O)c1cccnc1` (stereo not shown) [metyrapol], for which the cocaine self-administration entry in [1] is given as “dose dependently decreased”. The food-maintained responding result in test [2] was “not significantly affected except at the highest doses”.

Regarding `CC(C)(C(=O)c1cccnc1)c1cccnc1` [metyrapone], in [3], the ongoing cocaine self-administration entry is given as “significant dose-related decreases”. For the same compound, the plasma corticosterone result in the test with plasma corticosterone is “significant dose-related decreases”. Further, the “blocking cocaine self-administration following adrenalectomy compared to pre-adrenalectomy values” in test [4] was “as effective, and possibly even more effective”. Further, the “Corticosterone (plasma)” value in the test with plasma CORT is on record as “not changed”. The “ACTH (plasma)” value in the test on ACTH was “not changed”.

As to `c1cnc2cc3c(cc2n1)[C@@H]1CNC[C@H]3C1` [varenicline], the “nicotine infusions during the 1-hour self-administration session” value in test [5] was 7.7±1.2 infusions. Besides, the “efficacy for smoking cessation compared to either bupropion or nicotine replacement therapy” value with smoking cessation (literature reports) is “increased efficacy”. Also, in the test on smoking cessation (smoking cessation, Nides et al. 2006), the “quit rates after one year” value is on record as 14%.

Values taken from patent US9987286B2, “Compositions and methods for the treatment of addiction, psychiatric disorders, and neurodegenerative disease” (Embera NeuroTherapeutics, Inc., priority 2010, dated 2018).
